Measured values taken from patent publication US20100311714A1, “1H-IMIDAZO[4,5-c]QUINOLINONE COMPOUNDS” (priority 2009, published 2010).
Where two headings read alike, the source gives them in different places.

Assays:
[1] = system: S6 Ribosomal Protein phosphorylation Ser235/236 in TSC1 null mouse embryo fibroblast (MEF) cells; test: Reverse protein array, S6 Ribosomal Protein phosphorylation in TSC1 null MEF cells; type: cell-based; conditions: 1 h, TSC1-/- MEFs, 60 minutes
In short: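 Phospho-S6 (Ser235/236) was quantified by reverse protein array of cell lysates with a phospho-specific primary antibody. […]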

PI3K alfa = target: T1, PI3K alfa (Homo sapiens, UniProt P42336); test: PI3K alpha kinase assay (Kinase-Glo luminescence); type: biochemical
T1 construct: His tag (C); made in house; host or cells: baculovirus BV1075; Tn5 (Trichoplusia ni) or TiniPro insect cells
T1 sequence (P42336 with tags, fused parts or gaps limits assumed): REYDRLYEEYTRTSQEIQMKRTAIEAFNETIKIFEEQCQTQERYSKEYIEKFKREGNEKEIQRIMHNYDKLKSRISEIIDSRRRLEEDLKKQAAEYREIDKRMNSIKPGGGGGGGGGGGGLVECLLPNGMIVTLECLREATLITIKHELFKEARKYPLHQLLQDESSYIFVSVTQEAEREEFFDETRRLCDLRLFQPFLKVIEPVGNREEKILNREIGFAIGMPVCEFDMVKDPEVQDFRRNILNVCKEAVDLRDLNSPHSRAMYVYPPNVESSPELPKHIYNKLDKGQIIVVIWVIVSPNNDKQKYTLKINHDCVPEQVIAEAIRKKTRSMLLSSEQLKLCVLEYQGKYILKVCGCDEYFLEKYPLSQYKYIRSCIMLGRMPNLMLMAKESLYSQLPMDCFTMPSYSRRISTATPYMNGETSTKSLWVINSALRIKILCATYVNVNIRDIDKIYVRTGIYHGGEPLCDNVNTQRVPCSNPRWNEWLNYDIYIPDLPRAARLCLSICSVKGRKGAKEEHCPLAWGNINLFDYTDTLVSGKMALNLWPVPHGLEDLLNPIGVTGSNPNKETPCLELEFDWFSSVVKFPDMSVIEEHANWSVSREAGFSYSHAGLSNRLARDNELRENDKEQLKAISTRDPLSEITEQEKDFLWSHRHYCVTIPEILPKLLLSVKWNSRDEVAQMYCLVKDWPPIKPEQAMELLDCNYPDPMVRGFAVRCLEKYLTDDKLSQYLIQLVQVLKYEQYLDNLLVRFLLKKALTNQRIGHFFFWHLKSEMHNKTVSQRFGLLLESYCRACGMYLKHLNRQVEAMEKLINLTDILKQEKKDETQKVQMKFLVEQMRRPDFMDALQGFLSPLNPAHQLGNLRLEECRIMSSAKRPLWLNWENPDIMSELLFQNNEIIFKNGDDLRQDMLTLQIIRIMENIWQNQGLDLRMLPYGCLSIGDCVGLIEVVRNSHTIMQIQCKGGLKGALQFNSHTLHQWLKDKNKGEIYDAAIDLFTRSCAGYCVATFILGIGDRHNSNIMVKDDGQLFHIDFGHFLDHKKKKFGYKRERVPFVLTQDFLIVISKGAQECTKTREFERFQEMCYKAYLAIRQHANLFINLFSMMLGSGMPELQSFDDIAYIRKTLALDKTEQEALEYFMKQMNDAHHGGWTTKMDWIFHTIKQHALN
In short: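 Kinase-Glo luminescence read of ATP remaining after PI3Kα (10 nM) phosphorylates 10 μg/mL bovine liver phosphatidylinositol with 1 μM ATP, pH 7.5 TRIS, 3 mM MgCl2, 0.05% CHAPS; 60 min at room temperature. IC50 from 4-parameter logistic fit over 8 concentrations.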

Row | IC50 (PI3K alfa; read-out: EPK_PI3Kalfa/IC50) | IC50 (PI3K alfa; read-out: PI3Kalfa/IC50) | Compound | IC50 ([1]; read-out: p-S6 IC50) | IC50 ([1]; read-out: p-S6)
1 | 0.023 µM |  | COc1ncc(-c2ccc3ncc4c(c3c2)n(-c2ccc(N3CC(O)C3)nc2C)c(=O)n4C)c(OC)n1 [Example 29.6, 8-(2,4-Dimethoxy-pyrimidin-5-yl)-1-[6-(3-hydroxy-azetidin-1-yl)-2-methyl-pyridin-3-yl]-3-methyl-1,3-dihydro-imidazo[4,5-c]quinolin-2-one] | 0.005 µM | 
2 | 0.071 µM |  | Cc1nc(N2CC[C@H](O)C2)ccc1-n1c(=O)n(C)c2cnc3ccc(-c4cncc(OC(C)C)c4)cc3c21 [Example 32.8, 1-[6-((S)-3-Hydroxy-pyrrolidin-1-yl)-2-methyl-pyridin-3-yl]-8-(5-isopropoxy-pyridin-3-yl)-3-methyl-1,3-dihydro-imidazo[4,5-c]quinolin-2-one] | 0.0022 µM | 
3 | 0.094 µM |  | CCOc1cc(-c2ccc3ncc4c(c3c2)n(-c2ccc(F)nc2C)c(=O)n4C)cnc1COC [Example 7.5, 8-(5-Ethoxy-6-methoxymethyl-pyridin-3-yl)-1-(6-fluoro-2-methyl-pyridin-3-yl)-3-methyl-1,3-dihydro-imidazo[4,5-c]quinolin-2-one] | 0.021 µM | 
4 | 0.031 µM |  | CNc1cc(-c2ccc3ncc4c(c3c2)n(-c2cccnc2C)c(=O)n4C)cnc1C [Example 2.32, 3-Methyl-8-(6-methyl-5-methylamino-pyridin-3-yl)-1-(2-methyl-pyridin-3-yl)-1,3-dihydro-imidazo[4,5-c]quinolin-2-one] | 0.002 µM | 
5 |  | 0.119 µM | CCOc1ncc(-c2ccc3ncc4c(c3c2)n(-c2cccnc2C)c(=O)n4C)cn1 [Example 2.5, 8-(2-Ethoxy-pyrimidin-5-yl)-3-methyl-1-(2-methyl-pyridin-3-yl)-1,3-dihydro-imidazo[4,5-c]quinolin-2-one] |  | 0.237 µM
6 |  | 0.027 µM | CNc1ccc(-c2ccc3ncc4c(c3c2)n(-c2ccc(F)nc2C)c(=O)n4C)cn1 [Example 7.4, 1-(6-Fluoro-2-methyl-pyridin-3-yl)-3-methyl-8-(6-methylamino-pyridin-3-yl)-1,3-dihydro-imidazo[4,5-c]quinolin-2-one] |  | 0.00852 µM
7 |  | 0.02 µM | Cc1ncccc1-n1c(=O)n(C)c2cnc3ccc(-c4ccc(C(N)=O)cc4)cc3c21 [Example 2.3, 4-[3-Methyl-1-(2-methyl-pyridin-3-yl)-2-oxo-2,3-dihydro-1H-imidazo[4,5-c]quinolin-8-yl]-benzamide] |  | 0.0564 µM
8 |  | 0.1 µM | Cc1ncccc1-n1c(=O)n(C)c2cnc3ccc(-c4ccc(CO)nc4)cc3c21 [Example 2.6, 8-(6-Hydroxymethyl-pyridin-3-yl)-3-methyl-1-(2-methyl-pyridin-3-yl)-1,3-dihydro-imidazo[4,5-c]quinolin-2-one] |  | 0.0661 µM
9 |  | 0.206 µM | CCOc1ccc(-c2ccc3ncc4c(c3c2)n(-c2cnccc2C)c(=O)n4C)cn1 [Example 4.2, 8-(6-Ethoxy-pyridin-3-yl)-3-methyl-1-(4-methyl-pyridin-3-yl)-1,3-dihydro-imidazo[4,5-c]quinolin-2-one] |  | 0.46 µM
10 | 0.028 µM |  | CCNc1ncc(-c2ccc3ncc4c(c3c2)n(-c2ccc(N3CC[C@@H](O)C3)nc2C)c(=O)n4C)cc1C(F)(F)F [Example 34.2, 8-(6-Ethylamino-5-trifluoromethyl-pyridin-3-yl)-1-[6-((R)-3-hydroxy-pyrrolidin-1-yl)-2-methyl-pyridin-3-yl]-3-methyl-1,3-dihydro-imidazo[4,5-c]quinolin-2-one] | 0.0019 µM | 
11 |  | 0.032 µM | Cc1nc(F)ccc1-n1c(=O)n(C)c2cnc3ccc(-c4cnc5c(ccn5C)c4)cc3c21 [Example 7.2, 1-(6-Fluoro-2-methyl-pyridin-3-yl)-3-methyl-8-(1-methyl-1H-pyrrolo[2,3-b]pyridin-5-yl)-1,3-dihydro-imidazo[4,5-c]quinolin-2-one] |  | 0.0179 µM
12 | 0.179 µM |  | Cc1ncccc1-n1c(=O)n(C)c2cnc3ccc(-c4cncc(N5CCC5)c4)cc3c21 [Example 2.29, 8-(5-Azetidin-1-yl-pyridin-3-yl)-3-methyl-1-(2-methyl-pyridin-3-yl)-1,3-dihydro-imidazo[4,5-c]quinolin-2-one] | 0.005 µM | 
13 |  | 0.007 µM | Cc1ncccc1-n1c(=O)n(C)c2cnc3ccc(-c4cnc(N)c(C(F)(F)F)c4)cc3c21 [Example 2.11, 8-(6-Amino-5-trifluoromethyl-pyridin-3-yl)-3-methyl-1-(2-methyl-pyridin-3-yl)-1,3-dihydro-imidazo[4,5-c]quinolin-2-one] |  | 0.00235 µM
14 |  | 0.058 µM | CCOc1ccc(-c2ccc3ncc4c(c3c2)n(-c2ccc(N3CCNCC3)nc2OC)c(=O)n4C)cn1 [Example 9.1, 8-(6-Ethoxy-pyridin-3-yl)-1-(2-methoxy-6-piperazin-1-yl-pyridin-3-yl)-3-methyl-1,3-dihydro-imidazo[4,5-c]quinolin-2-one] |  | 0.0135 µM
15 |  | 0.015 µM | COc1ncccc1-n1c(=O)n(C)c2cnc3ccc(-c4cnc5[nH]ccc5c4)cc3c21 [Example 1.2, 1-(2-Methoxy-pyridin-3-yl)-3-methyl-8-(1H-pyrrolo[2,3-b]pyridin-5-yl)-1,3-dihydro-imidazo[4,5-c]quinolin-2-one] |  | 0.00261 µM
16 | 0.017 µM |  | CNc1ncc(-c2ccc3ncc4c(c3c2)n(-c2ccc(N3CC(O)C3)nc2C)c(=O)n4C)cc1C(F)(F)F [Example 29.4, 1-[6-(3-Hydroxy-azetidin-1-yl)-2-methyl-pyridin-3-yl]-3-methyl-8-(6-methylamino-5-trifluoromethyl-pyridin-3-yl)-1,3-dihydro-imidazo[4,5-c]quinolin-2-one] | 0.0017 µM | 
17 | 0.188 µM |  | CCOc1cc(-c2ccc3ncc4c(c3c2)n(-c2ccc(OCCOC)nc2C)c(=O)n4C)cnc1COC [Example 22.1, 8-(5-Ethoxy-6-methoxymethyl-pyridin-3-yl)-1-[6-(2-methoxy-ethoxy)-2-methyl-pyridin-3-yl]-3-methyl-1,3-dihydro-imidazo[4,5-c]quinolin-2-one] | 0.007 µM | 
18 | 0.044 µM |  | CNc1ncc(-c2ccc3ncc4c(c3c2)n(-c2ccc(N3CC[C@H](O)C3)nc2C)c(=O)n4C)cc1F [Example 32.2, 8-(5-Fluoro-6-methylamino-pyridin-3-yl)-1-[6-((S)-3-hydroxy-pyrrolidin-1-yl)-2-methyl-pyridin-3-yl]-3-methyl-1,3-dihydro-imidazo[4,5-c]quinolin-2-one] | 0.001 µM | 
19 | 0.067 µM |  | CCOc1cc(-c2ccc3ncc4c(c3c2)n(-c2ccc(N3CCCC3)nc2C)c(=O)n4C)cnc1COC [Example 25.2, 8-(5-Ethoxy-6-methoxymethyl-pyridin-3-yl)-3-methyl-1-(2-methyl-6-pyrrolidin-1-yl-pyridin-3-yl)-1,3-dihydro-imidazo[4,5-c]quinolin-2-one] | 0.002 µM | 
20 |  | 0.067 µM | CCOc1ccc(-c2ccc3ncc4c(c3c2)n(-c2ccc(F)nc2C)c(=O)n4C)cn1 [Example 7.3, 8-(6-Ethoxy-pyridin-3-yl)-1-(6-fluoro-2-methyl-pyridin-3-yl)-3-methyl-1,3-dihydro-imidazo[4,5-c]quinolin-2-one] |  | 0.0843 µM
21 |  | 0.018 µM | COc1nc(N2CCNCC2)ccc1-n1c(=O)n(C)c2cnc3ccc(-c4cnc(N)c(C(F)(F)F)c4)cc3c21 [Example 9.2, 8-(6-Amino-5-trifluoromethyl-pyridin-3-yl)-1-(2-methoxy-6-piperazin-1-yl-pyridin-3-yl)-3-methyl-1,3-dihydro-imidazo[4,5-c]quinolin-2-one] |  | 0.00335 µM
22 | 0.028 µM |  | Cc1ncccc1-n1c(=O)n(C)c2cnc3ccc(-c4cncc(NC(C)C)c4)cc3c21 [Example 2.24, 8-(5-Isopropylamino-pyridin-3-yl)-3-methyl-1-(2-methyl-pyridin-3-yl)-1,3-dihydro-imidazo[4,5-c]quinolin-2-one] | 0.004 µM | 
23 | 0.014 µM |  | CCNc1cc(-c2ccc3ncc4c(c3c2)n(-c2ccc(N3CCC3)nc2C)c(=O)n4C)cnc1CO [Example 23.8, 1-(6-Azetidin-1-yl-2-methyl-pyridin-3-yl)-8-(5-ethylamino-6-hydroxymethyl-pyridin-3-yl)-3-methyl-1,3-dihydro-imidazo[4,5-c]quinolin-2-one] | 0.006 µM | 
24 | 0.012 µM |  | Cc1nc(N(C)CCO)ccc1-n1c(=O)n(C)c2cnc3ccc(-c4cnc(N)c(C(F)(F)F)c4)cc3c21 [Example 26.1, 8-(6-Amino-5-trifluoromethyl-pyridin-3-yl)-1-{6-[(2-hydroxy-ethyl)-methyl-amino]-2-methyl-pyridin-3-yl}-3-methyl-1,3-dihydro-imidazo[4,5-c]quinolin-2-one] | < 0.000457 µM | 
25 | 0.014 µM |  | CCNc1cc(-c2ccc3ncc4c(c3c2)n(-c2cccnc2C)c(=O)n4C)cnc1CO [Example 2.31, 8-(5-Ethylamino-6-hydroxymethyl-pyridin-3-yl)-3-methyl-1-(2-methyl-pyridin-3-yl)-1,3-dihydro-imidazo[4,5-c]quinolin-2-one] | 0.021 µM | 
26 |  | 0.026 µM | COc1ccc(-c2ccc3ncc4c(c3c2)n(-c2cccnc2C)c(=O)n4C)cn1 [Example 2.12, 8-(6-Methoxy-pyridin-3-yl)-3-methyl-1-(2-methyl-pyridin-3-yl)-1,3-dihydro-imidazo[4,5-c]quinolin-2-one] |  | 0.018 µM
27 | 0.018 µM |  | COC1CCN(c2ccc(-n3c(=O)n(C)c4cnc5ccc(-c6cncc(C(C)(C)O)c6)cc5c43)c(C)n2)C1 (stereo not drawn) [Example 28.1, 8-[5-(1-Hydroxy-1-methyl-ethyl)-pyridin-3-yl]-1-[6-(3-methoxy-pyrrolidin-1-yl)-2-methyl-pyridin-3-yl]-3-methyl-1,3-dihydro-imidazo[4,5-c]quinolin-2-one] | 0.001 µM | 
